BindingDB's records for doi:10.1124/jpet.103.049262 (Sanofi-Synthelabo Research, 2003)

Columns and labels:
[1] = molecular target: Neuronal acetylcholine receptor subunit alpha-4 (Homo sapiens, UniProt P43681)
[2] = molecular target: Acetylcholine receptor subunit alpha (Homo sapiens, UniProt P02708)
Sequence of Acetylcholine receptor subunit alpha (P02708 as listed by the source): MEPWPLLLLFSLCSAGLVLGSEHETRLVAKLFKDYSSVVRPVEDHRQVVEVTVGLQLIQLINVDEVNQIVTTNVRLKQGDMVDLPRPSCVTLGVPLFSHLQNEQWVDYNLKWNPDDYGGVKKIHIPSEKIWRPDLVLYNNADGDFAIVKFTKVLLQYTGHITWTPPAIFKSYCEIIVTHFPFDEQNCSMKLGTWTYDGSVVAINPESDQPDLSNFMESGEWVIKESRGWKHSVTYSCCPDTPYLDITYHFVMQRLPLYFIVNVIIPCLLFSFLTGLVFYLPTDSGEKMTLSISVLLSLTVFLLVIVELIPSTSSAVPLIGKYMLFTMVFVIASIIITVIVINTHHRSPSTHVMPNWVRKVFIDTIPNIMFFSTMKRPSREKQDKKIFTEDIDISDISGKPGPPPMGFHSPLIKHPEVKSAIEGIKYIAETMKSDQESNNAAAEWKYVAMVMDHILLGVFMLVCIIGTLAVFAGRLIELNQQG

Sequence of Neuronal acetylcholine receptor subunit alpha-4 (P43681 whole entry): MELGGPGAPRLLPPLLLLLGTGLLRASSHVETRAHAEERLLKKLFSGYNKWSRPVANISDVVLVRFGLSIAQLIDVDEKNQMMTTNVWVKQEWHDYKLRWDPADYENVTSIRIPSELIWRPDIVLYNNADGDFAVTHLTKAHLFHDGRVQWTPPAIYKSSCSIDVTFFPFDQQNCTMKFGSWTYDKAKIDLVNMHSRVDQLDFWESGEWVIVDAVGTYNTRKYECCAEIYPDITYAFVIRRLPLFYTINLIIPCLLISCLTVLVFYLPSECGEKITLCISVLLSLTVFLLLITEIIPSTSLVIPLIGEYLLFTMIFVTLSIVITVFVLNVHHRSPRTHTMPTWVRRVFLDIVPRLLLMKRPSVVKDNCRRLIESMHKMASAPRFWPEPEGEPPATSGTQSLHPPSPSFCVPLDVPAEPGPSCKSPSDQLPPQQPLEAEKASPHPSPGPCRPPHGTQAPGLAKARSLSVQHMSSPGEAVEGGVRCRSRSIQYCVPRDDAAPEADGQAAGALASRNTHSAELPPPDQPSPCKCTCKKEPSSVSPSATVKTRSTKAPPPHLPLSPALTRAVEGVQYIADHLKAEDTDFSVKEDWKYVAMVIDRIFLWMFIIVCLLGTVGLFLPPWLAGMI

c1cnc2c(c1)O[C@H]1CCN3CC[C@@]1(C2)C3
Ki [1]: 0.036 µM
Ki [2]: 6 µM
